Experiments:
[1] = tested on: caspases 3/7, 8, and 9 in SAOS-2 cells; test: Caspase-Glo caspase-3/7, -8, -9 activity, SAOS-2; format: cell-based, human; settings: SAOS-2, Eug 0.5 mM, 72 h
Experimental: (§1) The activity of caspases 3/7, 8, and 9 was determined after the SAOS-2 and Detroit-562 cells’ 72 h treatment with Eug 0.5 mM, using the Caspase-Glo Kit provided by Promega, Madison, WI, USA. The plates were first equilibrated at room temperature for 30 min, then, the Caspase-Glo reagent (100 μL/well) was added. The plates were shaken for 30 s on a plate shaker and maintained at room temperature for another 2 h. Finally, the luminescence was measured on Cytation 5 (BioTek Instruments Inc., Winooski, VT, USA).

SAOS-2 cells [2] = test: RealTime-Glo Annexin V Apoptosis and Necrosis Assay, SAOS-2; format: cell-based, human; settings: SAOS-2, Eug 0.5 mM, 0-72 h
Experimental: (§2) To confirm the apoptotic effect of Eug 0.5 mM in Saos-2 and Detroit-562 cells, the RealTime-Glo™ Annexin V Apoptosis and Necrosis Assay was performed according to the manufacturer’s protocol. In brief, the cells were cultured in solid white bottom 96-well plates (Costar® 3917) and treated with Eug. The prepared 2X Detection Reagent that contained Annexin V NanoBiT™ Substrate, Annexin V-SmBiT, Annexin V-LgBiT, CaCl2, and Necrosis Detection Reagent was added in each well and the plates were shaken for 30 s at 500 rpm. The luminescence and fluorescence (excitation 485 ± 20 nm, and emission 525 ± 30 nm) were recorded at different time points (0, 6, 12, 24, 48, and 72 h post-treatment) using Cytation 5. Background signals (from no-cell wells) that were subtracted from the wells that contained cells.

Detroit-562 cells [3] = test: Cellular morphology evaluation (bright field), Detroit-562; format: cell-based, human; settings: Detroit-562, Eug 0.1 mM, 72 h, vs control
Experimental: (§3) As a means of determining the impact of Eug on the morphology of cells, the microscopic evaluation of SAOS-2 and Detroit-562 cells was carried out after exposure for 72 h. The changes were observed under bright field illumination with the help of the Olympus IX73 inverted microscope (Olympus, Tokyo, Japan), and the processing of the images for the purpose of analysis was carried out by means of CellSens Dimensions v.17 Software (Olympus, Tokyo, Japan).

[4] = tested on: Bax, Bad, Bcl-2 mRNA in Detroit-562 cells; test: RT-PCR expression of apoptosis-related genes, Detroit-562; format: cell-based, human; settings: Detroit-562, Eug 0.5 mM, 72 h, normalized to 18S
Experimental: (§4) To investigate the potential cell-death mechanism induced by Eug 0.5 mM in SAOS-2 and Detroit-562 cells, the expression of pro-apoptotic (Bax, Bad) and anti-apoptotic (Bcl-2) markers was evaluated using the real-time reverse transcription–polymerase chain reaction (RT-PCR) technique after 72 h of treatment. RNA extraction was performed using the Quick-RNA Miniprep Kit (Zymo Research, Irvine, CA, USA), and the amount of extracted RNA was measured with the DS-11 spectrophotometer (DeNovix, Wilmington, DE, USA). The cDNA was produced using the Maxima® First Strand cDNA Synthesis Kit, and the RT-qPCR quantification was performed using a Quant Studio 5 real-time PCR system (Thermo Fisher Scientific, Inc., Waltham, MA, USA) and Power SYBR-Green PCR Master Mix (Thermo Fisher Scientific, Inc., Waltham, MA, USA).

SAOS-2 cells [5] = test: Cellular morphology evaluation (bright field), SAOS-2; format: cell-based, human; settings: SAOS-2, concentrations higher than 0.1 mM, 72 h
Experimental: as §3

SAOS-2 cells [6] = test: DAPI nuclear morphology / apoptotic index, SAOS-2; format: cell-based, human; settings: 72 h
Experimental: (§5) Using immunofluorescence, it was possible to provide further details regarding Eug’s effects on osteosarcoma and oropharynx squamous carcinoma nuclei. The technique was performed for cells stimulated with Eug 0.5 and 1 mM for 72 h. The applied protocol assumed the following stages: (i) culturing the cells in 12-well plates and stimulating them after reaching the desired confluence with Eug 0.5 and 1 mM for 72 h; (ii) washing with PBS and fixing the cells with 4% paraformaldehyde; (iii) permeabilization with Triton X 0.2%; (iv) blocking the permeabilization with a FCS solution in Triton X 0.01%; and (v) adding DAPI for 15 min. The pictures were then taken with Cytation 1 and processed using Gen5™ Micro-plate Data Collection and Analysis Software v. 3.12 (BioTek® Instruments Inc., Winooski, VT, USA). For a quantitative analysis of the Eug impact at the cellular level, the cell apoptosis index (AI) was calculated using the previously described formula [76]: AI=Number of apoptotic cells/Total number of cells×100
(§6) In accordance with the published protocols, the nuclear morphology was evaluated using ImageJ software v.6 [77].

[7] = tested on: gingival fibroblasts (HGF); design: method as in PMID 36675971, doi:10.31925/farmacia.2023.2.8; settings: same concentration and time interval as current study; cited from earlier work
[8] = tested on: colorectal carcinoma cells (HCT-116); design: method as in doi:10.31925/farmacia.2023.2.8; settings: HCT-116, Eug between 0.1 and 1 mM; cited from earlier work
[9] = tested on: SAOS-2 (human osteosarcoma cells); test: MTT cell viability assay, SAOS-2; format: cell-based; settings: 72 h, read-out: cell viability (normalized to control)
Experimental: (§7) The present study was performed on two human cancer cell lines—SAOS-2 (osteosarcoma cells) and Detroit-562 (oropharynx squamous carcinoma cells), respectively, which were received from ATCC in the form of frozen vials. SAOS-2 cells were cultured in DMEM, while Detroit-562 cells were cultured using EMEM. Both media contained 10% FCS and 1% penicillin (100 U/mL)–streptomycin (100 μg/mL) mixture. Over the course of the experiments, the cells were incubated at 37 °C and 5% CO2.
(§8) A colorimetric approach—the MTT [[…])-2,5-diphenyltetrazolium bromide] assay, was used to determine cell viability. This was accomplished by cultivating the cells in 96-well plates at a density of 1x10^4 cells per well. Upon achieving a confluence of approximately 90%, the cells were stimulated for 72 h with five concentrations of Eug (0.1; 0.25; 0.5; 0.75 and 1 mM). The Eug solutions were prepared by diluting stock solution in culture medium. After this time interval, 10 μL of MTT reagent was added to each well, and the cells were incubated for three hours at 37 °C. To solubilize the MTT formazan crystals, 100 μL of solubilizer were added to each well, and after 30 min, the absorbance was measured at 570 nm using Cytation 5 (BioTek Instruments Inc., Winooski, VT, USA).

[10] = tested on: tongue squamous carcinoma cells (SCC4); design: method as in PMID 36675971; settings: SCC4, Eug between 0.1 and 1 mM; cited from earlier work
[11] = tested on: Bax, Bad, Bcl-2 mRNA in SAOS-2 cells; test: RT-PCR expression of apoptosis-related genes, SAOS-2; format: cell-based, human; settings: SAOS-2, Eug 0.5 mM, 72 h, normalized to 18S
Experimental: as §4

Detroit-562 cells [12] = test: DAPI nuclear morphology / apoptotic index, Detroit-562; format: cell-based, human; settings: 72 h
Experimental: as §5, §6

keratinocytes (HaCaT) = settings: cited from earlier work
[13] = tested on: Detroit-562 (oropharynx squamous carcinoma cells); test: MTT cell viability assay, Detroit-562; format: cell-based; settings: Homo sapiens, 72 h, read-out: cell viability (normalized to control)
Experimental: as §7, §8

[14] = tested on: chorioallantoic membrane of hen's eggs; test: Hen's Egg Test - Chorioallantoic Membrane (HET-CAM); format: in vivo, Gallus gallus domesticus; design: key to IS (irritation score): IS = 5×(301−H)/300 + 7×(301−L)/300 + 9×(301−C)/300; tH, time at which hemorrhage was established / tL, time at which vascular lysis was established / tC, time at which intravascular coagulation was established: unit not given here; settings: Eug 1 mM / SDS 1%, monitored 5 min; for IS (irritation score): 600 µL on CAM
Experimental: The irritant and toxic potential of Eug (1 mM) at the vascular level was assessed by performing the HET-CAM assay, as previously described. In brief, several steps were followed: […] (ii) on day 4 after incubation, a perforation was made in each egg to extract 6 to 7 mL of albumen; (iii) on the next day of incubation, a window was cut in the upper part of the eggs to facilitate the visualization of the blood vessels, and was covered using adhesive tape; (iv) on day 10 of incubation, 600 µL of each sample (negative control—H2O, positive control—SDS 1%, and Eug 1 mM) were added to the chorioallantoic membrane; (v) the compounds’ ability to produce hemorrhage (H), vascular lysis (L), and coagulation was monitored for 5 min, taking photos (using the Discovery 8 Stereomicroscope from Zeiss, Göttingen, Germany and the Zeiss Axio CAM 105 color camera) prior to the addition of the samples (T0) and at the end of the 5 min period (T5); and (vi) the irritation score (IS) was finally determined for each sample, according to the following formula: IS=5×301−H/300+7×301−L/300+9×301−C/300, where IS = irritation score, H—the time at which the hemorrhage was observed, L—the time at which vascular lysis occurred and C—the time at which intravascular coagulation was established.

[15] = tested on: caspases 3/7, 8, and 9 in Detroit-562 cells; test: Caspase-Glo caspase-3/7, -8, -9 activity, Detroit-562; format: cell-based, human; settings: Detroit-562, Eug 0.5 mM, 72 h
Experimental: as §1

Detroit-562 cells [16] = test: RealTime-Glo Annexin V Apoptosis and Necrosis Assay, Detroit-562; format: cell-based, human; settings: Detroit-562, Eug 0.5 mM, 0-72 h
Experimental: as §2

SAOS-2 cells [17] = tested on: SAOS-2 cells; design: method as in PMID 26929741; settings: SAOS-2, 100 μM; cited from earlier work
[18] = SAOS-2, Eug 0.5 and 1 mM, vs control
[19] = Detroit-562, Eug 0.5 and 1 mM, vs control

C=CCc1ccc(O)c(OC)c1 [Eug, 4-alil-2-metoxifenol]
activation of caspase 3/7 [1]: significant increase | activation of caspase 8 [1]: significant increase | activation of caspase 9 [1]: significant increase | luminescence signal (phosphatidylserine externalization), preceding the fluorescence increase (SAOS-2 cells [2]): time-dependent increase | changes in aspect or confluence of cells (Detroit-562 cells [3]): no significant changes | expression of anti-apoptotic marker Bcl-2 (mRNA) [4]: decreasing | expression of pro-apoptotic marker Bad (mRNA) [4]: significantly increasing | expression of pro-apoptotic marker Bax (mRNA) [4]: significantly increasing | impact on cellular shape and confluence (SAOS-2 cells [5]): significant impact | apoptotic index (AI) (SAOS-2 cells [6]; SAOS-2, Eug 0.5 mM, DAPI): 25% | nucleus area (SAOS-2 cells [6]; [18]): decreased significantly | nucleus circumference (SAOS-2 cells [6]; [18]): decreased significantly | decrease in cell viability [7]: ≤ 70% | decrease in cell viability [8]: up to 34% | viability at 100 µM ([9]; SAOS-2, Eug 0.1 mM): 92% | viability at 1000 µM ([9]; SAOS-2, Eug 1 mM): 41% | cell viability (in words) [10]: dose-dependent decrease | expression of anti-apoptotic marker Bcl-2 (mRNA) [11]: decreasing | expression of pro-apoptotic marker Bad (mRNA) [11]: significantly increasing | expression of pro-apoptotic marker Bax (mRNA) [11]: significantly increasing | apoptotic index (AI) (Detroit-562 cells [12]; Detroit-562, Eug 0.5 mM, DAPI): 30% | nucleus area (Detroit-562 cells [12]; [19]): decreased significantly | nucleus circumference (Detroit-562 cells [12]; [19]): decreased significantly | decrease in cell viability (keratinocytes (HaCaT); HaCaT, same concentration and time interval as current study): ≤ 70% | viability at 100 µM ([13]; Detroit-562, Eug 0.1 mM): 89% | viability at 1000 µM ([13]; Detroit-562, Eug 1 mM): 37% | IS (irritation score) [14]: 1.69 | tC, time at which intravascular coagulation was established [14]: 263 | tH, time at which hemorrhage was established [14]: 300 | tL, time at which vascular lysis was established [14]: 278 | activation of caspase 3/7 [15]: significant increase | activation of caspase 8 [15]: significant increase | activation of caspase 9 [15]: significant increase | luminescence signal (phosphatidylserine externalization), preceding the fluorescence increase (Detroit-562 cells [16]): time-dependent increase

CCCCCCCCCCCCOS(=O)(=O)[O-].[Na+] [SDS, sodium dodecyl sulfate, reference compound]
IS (irritation score) [14]: 19.87 | tC, time at which intravascular coagulation was established [14]: 15 | tH, time at which hemorrhage was established [14]: 21 | tL, time at which vascular lysis was established [14]: 17

CN(Cc1cnc2nc(N)nc(N)c2n1)c1ccc(C(=O)N[C@@H](CCC(=O)O)C(=O)O)cc1 [methotrexate, reference compound]
cell viability (in words) (keratinocytes (HaCaT); non-tumor cells HaCaT, methotrexate more pronounced): reduced cell viability in a dose-dependent manner | cell viability (SAOS-2 cells [17]): below 20%
